Reference: the supplement of paper PMC11061612

Key:
Assay in all cases: combination Emax (second highest fraction inhibited in the dose matrix, 72 h); higher = more inhibition; extreme values may be limits of the assay
[1] = system: NCI-H1299 (Non-Small Cell Lung Carcinoma)
Outline: (§1)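 After 24 hours at 37°C and 5% CO2 in 1536-well plates, cells in DMEM/F12 or RPMI plus 10% FBS received two-drug dose matrices for 72 hours. Viability came from CellTiter-Glo 2.0 luminescence and was scaled as inhibition, anchored at 0 by vehicle wells and at 1 by blank wells. Combination Emax is taken as the second-highest inhibition in the matrix, and Bliss excess as the observed combination effect less EA + EB − EA·EB, with EA and EB the single-agent effects.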

SK-N-FI (Neuroblastoma) = system: SK-N-FI (Neuroblastoma)
Outline: as §1

[2] = system: NCI-H1793 (Lung Adenocarcinoma)
Outline: as §1

CAL-78 (Chondrosarcoma) = system: CAL-78 (Chondrosarcoma)
Outline: as §1

[3] = system: KARPAS-620 (Plasma Cell Myeloma)
Outline: as §1

[4] = system: SUIT-2 (Pancreatic Carcinoma)
Outline: as §1

[5] = system: MFH-ino (Other Solid Carcinomas)
Outline: as §1

[6] = system: C3A (Hepatocellular Carcinoma)
Outline: as §1

[7] = system: LU-99A (Non-Small Cell Lung Carcinoma)
Outline: as §1

[8] = system: TE-5 (Esophageal Squamous Cell Carcinoma)
Outline: as §1

[9] = system: EM-2 (Chronic Myelogenous Leukemia)
Outline: as §1

[10] = system: LS-513 (Colorectal Carcinoma)
Outline: as §1

[11] = system: DB (B-Cell Non-Hodgkin's Lymphoma)
Outline: as §1

[12] = system: DOV13 (Ovarian Carcinoma)
Outline: as §1

[13] = system: JiyoyeP-2003 (Burkitt's Lymphoma)
Outline: as §1

[14] = system: MDA-MB-231 (Breast Carcinoma)
Outline: as §1

SN12C (Kidney Carcinoma) = system: SN12C (Kidney Carcinoma)
Outline: as §1

DSH1 (Bladder Carcinoma) = system: DSH1 (Bladder Carcinoma)
Outline: as §1

J82 (Bladder Carcinoma) = system: J82 (Bladder Carcinoma)
Outline: as §1

[15] = system: 697 (B-Lymphoblastic Leukemia)
Outline: as §1

| Structure (SMILES) | combination Emax [1] | combination Emax (SK-N-FI (Neuroblastoma)) | combination Emax [2] | combination Emax (CAL-78 (Chondrosarcoma)) | combination Emax [3] | combination Emax [4] | combination Emax [5] | combination Emax [6] | combination Emax [7] | combination Emax [8] | combination Emax [9] | combination Emax [10] | combination Emax [11] | combination Emax [12] | combination Emax [13] | combination Emax [14] | combination Emax (SN12C (Kidney Carcinoma)) | combination Emax (DSH1 (Bladder Carcinoma)) | combination Emax (J82 (Bladder Carcinoma)) | combination Emax [15] |
| --- | --- | --- | --- | --- | --- | --- | --- | --- | --- | --- | --- | --- | --- | --- | --- | --- | --- | --- | --- | --- |
| COc1cccc(OCCCN)c1-c1cc(Nc2cnc(C#N)cn2)n[nH]1 [Prexasertib] + CN(C)CCCOc1ccc(-c2ccc3ncc4c(c3c2)n(C2CCOCC2)c(=O)n4C)cn1 [AZD0156] (first compound max 1 µM, 7x7, partner max 1 µM) | 0.747 | 0.908 | 0.468 | 0.525 | 0.896 | 0.682 | 0.394 | 0.613 | 0.823 | 0.543 | 0.986 | 0.824 | 0.771 | 0.927 | 0.987 | 0.743 | 0.342 | 0.82 | 0.407 | 1 |
| CC1(C)CCC(CN2CCN(c3ccc(C(=O)NS(=O)(=O)c4ccc(NCC5CCOCC5)c([N+](=O)[O-])c4)c(Oc4cnc5[nH]ccc5c4)c3)CC2)=C(c2ccc(Cl)cc2)C1 [Venetoclax] + C1CN(CCC1(C(=O)N[C@@H](CCO)C2=CC=C(C=C2)Cl)N)C3=NC=NC4=C3C=CN4 [Capivasertib] (first compound max 1 µM, 7x7, partner max 3 µM) | 0.171 | 0.302 | 0.221 | 0.263 | 1 | 0.129 | 0.258 | 0.17 | 0.312 | 0.255 | 0.338 | 0.335 | 0.941 | 0.353 | 0.591 | 0.184 | 0.206 | 0.416 | 0.259 | 0.988 |
| CC(=O)c1c(C)c2cnc(Nc3ccc(N4CCNCC4)cn3)nc2n(C2CCCC2)c1=O [Palbociclib] + Cc1c2c(nn1C)CSCc1cc(n(C)n1)CSc1cc(c3ccccc3c1)OCCCc1c(C(=O)O)n(C)c3c-2c(Cl)ccc13 [AZD5991] (first compound max 10 µM, 7x7, partner max 1 µM) | 0.478 | 0.557 | 0.212 | 0.693 | 1 | 0.445 | 0.382 | 0.592 | 0.346 | 0.157 | 0.484 | 0.658 | 1 | 0.752 | 0.588 | 0.455 | 0.166 | 0.523 | 0.25 | 1 |
| Cc1c2c(nn1C)CSCc1cc(n(C)n1)CSc1cc(c3ccccc3c1)OCCCc1c(C(=O)O)n(C)c3c-2c(Cl)ccc13 [AZD5991] + CCN(CCO)CCCOc1ccc2c(Nc3cc(CC(=O)Nc4cccc(F)c4)[nH]n3)ncnc2c1 [AZD2811] (first compound max 1 µM, 7x7, partner max 1 µM) | 0.406 | 0.335 | 0.2 | 0.868 | 1 | 0.19 | 0.251 | 0.32 | 0.37 | 0.261 | 0.906 | 0.623 | 0.987 | 0.603 | 0.803 | 0.321 | 0.387 | 0.839 | 0.192 | 1 |
| Cc1cc2ncnn2cc1Nc1ncc2c(n1)n(C1CCOCC1)c(=O)n2C [AZD7648] + C[C@@H]1COCCN1C2=NC(=NC(=C2)C3(CC3)[S@](=N)(=O)C)C4=C5C=CNC5=NC=C4 [AZD6738] (first compound max 10 µM, 7x7, partner max 10 µM) | 0.644 | 0.71 | 0.36 | 0.469 | 0.539 | 0.611 | 0.499 | 0.548 | 0.681 | 0.565 | 0.957 | 0.762 | 0.54 | 0.838 | 0.929 | 0.605 | 0.313 | 0.736 | 0.31 | 1 |
| CCN(CCO)CCCOc1ccc2c(Nc3cc(CC(=O)Nc4cccc(F)c4)[nH]n3)ncnc2c1 [AZD2811] + O=C(c1cc(Cc2n[nH]c(=O)c3ccccc23)ccc1F)N1CCN(C(=O)C2CC2)CC1 [Olaparib] (first compound max 1 µM, 7x7, partner max 10 µM) | 0.303 | 0.171 | 0.0897 | 0.416 | 0.4 | 0.0755 | 0.338 | 0.253 | 0.508 | 0.184 | 0.822 | 0.404 | 0.604 | 0.483 | 0.315 | 0.275 | 0.273 | 0.328 | 0.0709 | 1 |
| COc1cccc(OCCCN)c1-c1cc(Nc2cnc(C#N)cn2)n[nH]1 [Prexasertib] + C[C@@H]1COCCN1C2=NC(=NC(=C2)C3(CC3)[S@](=N)(=O)C)C4=C5C=CNC5=NC=C4 [AZD6738] (first compound max 1 µM, 7x7, partner max 10 µM) | 0.732 | 0.915 | 0.423 | 0.604 | 0.856 | 0.747 | 0.572 | 0.528 | 0.767 | 0.548 | 0.994 | 0.8 | 0.748 | 0.945 | 0.981 | 0.705 | 0.313 | 0.852 | 0.522 | 1 |
